In patent US12133916B2, “Process for producing an andrographolide carrier system” (priority 2021, dated 2024):

Assay: Water solubility / water-dispersability comparison (FIG. 1)
Assay type: physicochemical
Conditions: dispersed in water, visual

Structure (SMILES): C=C1CC[C@@H]2[C@](C)(CO)[C@H](O)CC[C@@]2(C)[C@@H]1C/C=C1/C(=O)OC[C@H]1O [known 99% andrographolide, Andrographolide]
- water-dispersability (FIG. 1): insoluble in water
